Tests used:
[1] = tested on: B-NHL cell lines; test: Treatment of B-NHL cell lines with alkoxyamines (cell killing); assay type: cell-based; settings: for killing of a B-NHL cell line (cytotoxicity): comparison of alkoxyamines AA3 through AA7, FIG. 17
[2] = tested on: B-NHL cell lines; test: as above; assay type: cell-based; settings: for effect on cell growth / cell death: B-NHL cells; for cell death: even at 10 mM
Description: A 24 hr treatment with 1 mM AA3 killed greater than 40% cells in each culture and at 10 mM concentration, >70% cells were killed (FIG. 11). […] Therefore, AA3 cytocidal to B-NHL cells while MX and ARP are only cytostatic.

[3] = tested on: AP sites in DNA; test: AP site labeling reaction on synthetic oligomer (gel shift, click reaction); assay type: biochemical; settings: for product formation: pH 7
Description: A 6-carboxyfluorescein-(6-FAM-) labeled oligonucleotide U-17-mer (5-6-FAM-ATTATTAUCCATTTATT-3′, […]) was used for the AP site labeling reaction. The oligomer (4 pmol) was incubated with E. coli uracil DNA glycosylase (UDG, 1 unit, New England Labs) at 37° C. for 30 min in reaction buffer containing 20 mM Tris-HCl (pH 8.0), 1 mM DTT and 1 mM EDTA to create AP site containing DNA. The alkoxyamine [methoxyamine, MX (Sigma-Aldrich); aldehyde reactive probe, ARP (Dojindo Laboratories) or AA3] was added into the oligomer solution at indicated concentrations, and incubated at 37° C. for another 30 min. In some experiments, the pH of the solution was adjusted with HCl or NaOH solution following removal of uracil and the pH was confirmed using pH paper. Following the reaction of alkoxyamine, unlabeled AP sites were reduced by the addition of NaBH4 (Sigma-Aldrich) to 100 mM and further incubation for 5 min. If this step was omitted, we observed significant degradation of the DNA. The reactions were stopped by the addition of formamide, loading dye and heating to 95° C. for5 min. The DNAs were electrophoresed in 20% polyacrylamide gels containing 7 M urea and scanned using a Typhoon 9210 phosphorimager (GE Healthcare). Product bands in images were quantified using ImageQuant software. In experiments involving competition between alkoxyamines, AP site containing DNA was reacted with the first alkoxyamine at 37° C. for 30 min. This was followed by the addition of the second alkoxyamine and incubation for an additional 30 min. The reactions were stopped and the products were analyzed as described above.
Biotin azide or Cy5 azide (Lumiprobe) was added to a solution of AA3-linked 17-mer to 0.5 mM followed by the addition of a freshly prepared solution of CuBr/TBTA (1:3 in DMSO/t-BuOH 3:1, 0.5 mM, Sigma-Aldrich). The mixture was shaken at 45° C. for 1 h. The DNAs were electrophoresed and analyzed as described above.

[4] = tested on: APE-1; test: AP endonuclease activity assay; assay type: biochemical, mammalian; settings: for protection of AP sites against cleavage by APE-1: alkoxyamine reaction at pH 5
Description: The cleavage activity of AP endonuclease APE-1 (1 unit, New England Biolabs) was assayed using a 6-FAM labeled oligomer (4 pmol) containing a single uracil. The uracil was excised using UDG to create an AP site and the AP site was labeled with an alkoxyamine as described above. The APE-1 reaction was per-formed in the reaction buffer (50 mM potassium acetate, 20 mM Tris-acetate, 10 mM magnesium acetate, 1 mM DTT, pH 7.9) at 37° C. for 1 h. DNA products were stabilized by incubation with NaBH4 and analyzed by gel electrophoresis as described above.

[5] = tested on: HeLa cells; test: Killing of HeLa cells by MMS combined with MX or AA3 (trypan blue exclusion); assay type: cell-based, human
Description: Methyl methanesulfonate (MMS, Sigma-Aldrich) was diluted in phosphate buffered saline. MX or AA3 was dissolved in sterile water, and the pH was adjusted to 7 using NaOH solution. The solutions of all the chemicals were freshly prepared for each cytotoxicity experiment. HeLa cells were seeded in 48-well tissue culture plates at 3×10^4 to 6×10^4 cell/mL and grown overnight in DMEM with 10% fetal bovine serum (HyClone). Cells were treated with MMS or as a combination of MMS with MX or AA3 at indicated concentrations and harvested after 24 h. The viability of the cells was assessed via trypan blue (HyClone) exclusion assay performed using TC20 Automated Cell Counter (Bio-Rad Laboratories).

SMILES: C=CCON [AA7, O-allylhydroxylamine]
- killing of a B-NHL cell line (cytotoxicity) [1]: cytotoxic

SMILES: NOCCC(=O)NNC(=O)CCCC[C@@H]1SC[C@@H]2NC(=O)N[C@@H]21 [ARP, N′-(3-(aminooxy)propanoyl)-5-((3aS,4S,6aR)-2-oxohexahydro-H-thieno[3,4-d]imidazol-4-yl)pentanehydrazide]
- cytocidal or cytostatic to B-NHL cells [2]: cytostatic
- effect on cell growth [2]: temporary pause in cell growth
- cell death [2]: did not result in cell death
- substrate converted to product ([3]; 0.2 μM oligomer, 5 mM ARP, pH 7 or 8): < 20%
- product formation ([3]; 5 mM): 13%
- product formation ([3]; 10 mM): 20%
- DNA cleaved by APE-1 ([4]; AP sites reacted with alkoxyamine at pH 7): about 90%
- protection of AP sites against cleavage by APE-1 [4]: 74%

SMILES: CON [MX, methoxyamine]
- cytocidal or cytostatic to B-NHL cells [2]: cytostatic
- effect on cell growth [2]: temporary pause in cell growth
- cell death [2]: did not result in cell death
- enhancement of killing by MMS ([5]; 10 mM with MMS, six independent cultures): did enhance killing by MMS
- protection of AP sites against cleavage by APE-1 [4]: ~100%
- protection of AP sites against APE-1 ([4]; alkoxyamine reaction at pH 7): protected an overwhelming majority of AP sites

SMILES: CCCON [AA4, O-(n-propyl)hydroxylamine]
- killing of a B-NHL cell line ([1]; even at 10 mM, FIG. 17): did not significantly kill the cells

SMILES: C#CCCON [AA5, O-(but-3-yn-1-yl)hydroxylamine]
- effectiveness in killing relative to AA3 ([1]; a B-NHL cell line): somewhat less effective
- killing of a B-NHL cell line (cytotoxicity) [1]: killed these cells

SMILES: COS(C)(=O)=O [MMS, Methyl methanesulfonate]
- loss of viability ([5]; MMS alone, 50 µM, after one day): very little loss of viability

From patent US10905658B2, “Methods and compositions for detecting hematopoietic and lymphoid tissue cancer cells” (WAYNE STATE UNIVERSITY, priority 2016, dated 2021)
